{
  "source": "patent US20050201991A1",
  "about": "“Stem cell culture” (priority 2002, published 2005)",
  "system": "NTERA2 human EC cells",
  "test": "Two fluorochrome flow cytometric analysis of FGF-4 reporter with SSEA-3 labelling on differentiation",
  "assay_type": "cell-based",
  "conditions": "retinoic acid treated versus undifferentiated NTERA2 cells",
  "experimental": "Variations of these vectors including pTK-GFP, p5FGF4EN-GFP and p5FGF4EN-Bact-GFP with WES site linking an antibiotic selection marker, for example puromycin or neonmycin resistance, to the expression of GFP were also created (IRESantibiotic selection marker sequences were inserted in the Notl cloning site immediately 3′ to the GFP sequence).\nThe human embryonal carcinoma (EC) cell line, NTERA2 cl D1, was cultured in DMEM with 10% fetal calf serum as previously described (Andrews et al 1984). […]\nHuman EC and ES cells were transfected by the same protocol: After incubation at 37° C. overnight the cells were transfected, following the manufacturer's protocol, as follows: 9.5 μg DNA was diluted into 300 μl 0.15 M NaCl and mixed with 21 μl ExGen 500 (MBI Fermentas) and vortexed. […] After incubating for 6-12 hours at 37 C, the medium was removed and the cells fed with fresh medium and fluorescence observed by microscopy under UV epi-illumination.\nCell surface antigen expression of cultured cells was assessed by indirect immunofluorescence detected by flow cytofluorimetry, after harvesting the cultures as single cell suspensions using trypsin-EDTA, as described previously (Andrews et al 1987, Fenderson et al 1987). […] In some experiments, cells that were either positive or negative for SSEA3 and SSEA1 were isolated by fluorescence activated cell sorting (Andrews et al 1987).",
  "data": [
    {"molecule": "CC1=C(/C=C/C(C)=C/C=C/C(C)=C/C(=O)O)C(C)(C)CCC1", "note": "[retenoic acid, all-trans-retinoic acid]", "values": [
      {"measurement": "GFP expression from FGF-4 reporter", "setting": "p5FGF4EN-GFPIP reporter", "result": "greatly reduced"},
      {"measurement": "SSEA-3 expression", "result": "reduction"}
    ]}
  ]
}
